Patent US10570121B2, “Substituted dihydroisoquinolinone compounds” (priority 2014, dated 2020)

What was measured:
WT EZH2 = WT EZH2 (Homo sapiens (Human), UniProt Q15910); assay: WT EZH2 nucleosome assay (10X SAM, high SAM conditions); format: biochemical; conditions: 15 uM SAM, Ki app from competitive inhibition fit, read-out: WT EZH2 Nucleosome assay (10X SAM) Ki
EZH2 Mutant Y641N = EZH2 Mutant Y641N (Homo sapiens (Human), UniProt Q15910, Y641N); assay: EZH2 Mutant Y641N nucleosome assay; format: biochemical; conditions: PRC2 4-protein complex 6 nM, 1.5 μM SAM, HeLa oligonucleosomes; read-out: EZH2 Mutant Y641N Nucleosome assay IC50
Chain of EZH2 Mutant Y641N (Q15910 whole entry Y641N, looked up): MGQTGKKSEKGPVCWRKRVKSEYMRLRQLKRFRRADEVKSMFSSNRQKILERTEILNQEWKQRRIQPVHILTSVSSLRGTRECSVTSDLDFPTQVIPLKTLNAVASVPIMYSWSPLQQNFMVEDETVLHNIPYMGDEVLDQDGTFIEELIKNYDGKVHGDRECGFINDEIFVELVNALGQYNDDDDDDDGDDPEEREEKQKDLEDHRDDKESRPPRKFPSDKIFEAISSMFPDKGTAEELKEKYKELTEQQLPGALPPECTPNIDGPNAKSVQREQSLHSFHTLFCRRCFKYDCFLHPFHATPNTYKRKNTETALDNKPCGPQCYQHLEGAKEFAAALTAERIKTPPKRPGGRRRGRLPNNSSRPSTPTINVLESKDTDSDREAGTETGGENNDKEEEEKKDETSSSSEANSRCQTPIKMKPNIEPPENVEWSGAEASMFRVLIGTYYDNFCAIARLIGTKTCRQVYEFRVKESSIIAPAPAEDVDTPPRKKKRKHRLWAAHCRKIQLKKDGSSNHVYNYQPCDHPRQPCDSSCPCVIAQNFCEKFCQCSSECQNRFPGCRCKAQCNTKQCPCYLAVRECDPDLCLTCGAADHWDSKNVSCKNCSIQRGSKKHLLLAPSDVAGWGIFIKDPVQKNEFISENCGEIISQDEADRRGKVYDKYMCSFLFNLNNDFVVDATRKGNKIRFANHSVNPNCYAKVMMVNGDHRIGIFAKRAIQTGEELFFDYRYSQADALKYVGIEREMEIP
Chain of EZH2 Mutant Y641N (O75530 whole entry partner, looked up): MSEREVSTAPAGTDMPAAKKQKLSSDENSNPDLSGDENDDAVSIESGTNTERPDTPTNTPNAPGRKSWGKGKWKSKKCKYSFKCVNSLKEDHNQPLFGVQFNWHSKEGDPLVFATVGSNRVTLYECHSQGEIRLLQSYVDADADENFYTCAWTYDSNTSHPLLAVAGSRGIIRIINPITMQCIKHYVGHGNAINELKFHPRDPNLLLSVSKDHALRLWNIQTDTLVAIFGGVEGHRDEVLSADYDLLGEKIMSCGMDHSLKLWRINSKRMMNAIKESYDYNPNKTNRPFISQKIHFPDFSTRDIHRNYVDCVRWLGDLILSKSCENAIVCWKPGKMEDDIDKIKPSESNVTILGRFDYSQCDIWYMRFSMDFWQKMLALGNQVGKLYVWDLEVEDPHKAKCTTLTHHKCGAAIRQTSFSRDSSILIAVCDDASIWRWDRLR
Chain of EZH2 Mutant Y641N (Q15022 whole entry partner, looked up): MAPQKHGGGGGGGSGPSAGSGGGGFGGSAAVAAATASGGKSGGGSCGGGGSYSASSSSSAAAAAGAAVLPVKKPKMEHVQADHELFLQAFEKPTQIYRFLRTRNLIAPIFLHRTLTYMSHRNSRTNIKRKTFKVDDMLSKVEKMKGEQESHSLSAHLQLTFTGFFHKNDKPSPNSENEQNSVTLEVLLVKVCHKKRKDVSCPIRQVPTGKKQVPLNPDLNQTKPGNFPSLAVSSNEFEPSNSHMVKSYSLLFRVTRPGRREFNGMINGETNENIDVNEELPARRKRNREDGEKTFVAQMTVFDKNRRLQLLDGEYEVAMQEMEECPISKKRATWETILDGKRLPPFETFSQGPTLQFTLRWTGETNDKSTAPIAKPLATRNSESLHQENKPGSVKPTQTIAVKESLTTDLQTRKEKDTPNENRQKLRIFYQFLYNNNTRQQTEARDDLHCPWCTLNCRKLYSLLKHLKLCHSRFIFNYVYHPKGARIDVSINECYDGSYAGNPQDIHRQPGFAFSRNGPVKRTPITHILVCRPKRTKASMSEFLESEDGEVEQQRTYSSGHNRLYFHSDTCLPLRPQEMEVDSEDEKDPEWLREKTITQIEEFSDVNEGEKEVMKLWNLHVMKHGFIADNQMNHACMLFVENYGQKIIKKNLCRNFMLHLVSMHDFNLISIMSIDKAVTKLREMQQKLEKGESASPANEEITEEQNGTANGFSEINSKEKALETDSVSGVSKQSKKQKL
Chain of EZH2 Mutant Y641N (Q09028 whole entry partner, looked up): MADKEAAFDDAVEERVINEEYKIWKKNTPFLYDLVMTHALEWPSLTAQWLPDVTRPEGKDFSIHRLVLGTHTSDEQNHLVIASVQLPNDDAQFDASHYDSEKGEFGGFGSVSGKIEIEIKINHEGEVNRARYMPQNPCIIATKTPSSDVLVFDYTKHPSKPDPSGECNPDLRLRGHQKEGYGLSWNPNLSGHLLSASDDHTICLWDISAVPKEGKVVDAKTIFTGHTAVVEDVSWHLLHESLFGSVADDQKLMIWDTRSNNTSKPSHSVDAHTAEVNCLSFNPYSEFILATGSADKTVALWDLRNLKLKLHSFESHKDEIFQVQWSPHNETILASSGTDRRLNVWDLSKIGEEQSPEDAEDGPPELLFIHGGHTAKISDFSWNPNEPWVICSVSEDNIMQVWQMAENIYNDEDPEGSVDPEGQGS

Chain of WT EZH2 (Q15910 whole entry, looked up): as the sequence (Q15910 whole entry Y641N, looked up) above, with N641Y counted along it
Chain of WT EZH2 (O75530 whole entry partner, looked up): as the sequence (O75530 whole entry partner, looked up) above
Chain of WT EZH2 (Q15022 whole entry partner, looked up): as the sequence (Q15022 whole entry partner, looked up) above
Chain of WT EZH2 (Q09028 whole entry partner, looked up): as the sequence (Q09028 whole entry partner, looked up) above

Structure (SMILES)	Ki (WT EZH2)	IC50 (EZH2 Mutant Y641N)
COc1cc(C)[nH]c(=O)c1CN1CCc2c(C)cc(C(C)C3CN(S(C)(=O)=O)C3)c(Cl)c2C1=O (single isomer, unassigned) [Example 192]	117 nM	605 nM
Cc1cc(C)c(CN2CCc3c(C)cc(C(C)C4CN(S(C)(=O)=O)C4)c(Cl)c3C2=O)c(=O)[nH]1 (single isomer, unassigned) [Example 193]	1 nM	10 nM
Cc1cc(C)c(CN2CCc3c(C)cc(C(C)C4CN(S(C)(=O)=O)C4)c(Cl)c3C2=O)c(=O)[nH]1 (single isomer, unassigned) [Example 194]	44 nM	309 nM
Cc1cc(C)c(CN2CCc3c(C)cc(C(C)C4COC4)c(Cl)c3C2=O)c(=O)[nH]1 (single isomer, unassigned) [Example 195]	46 nM	216 nM
Cc1cc(C)c(CN2CCc3c(C)cc(C(C)C4COC4)c(Cl)c3C2=O)c(=O)[nH]1 (single isomer, unassigned) [Example 196]	0.2 nM	3 nM
COc1cc(C)[nH]c(=O)c1CN1CCc2c(C)cc(C(C)C3COC3)c(Cl)c2C1=O (single isomer, unassigned) [Example 197]	33 nM	62 nM
COc1cc(C)[nH]c(=O)c1CN1CCc2c(C)cc(C(C)C3COC3)c(Cl)c2C1=O (single isomer, unassigned) [Example 198]	0.01 nM	1 nM
COc1cc(C)[nH]c(=O)c1CN1CCc2c(Cl)cc(C(C)C3CCN(C(=O)CO)CC3)c(Cl)c2C1=O (single isomer, unassigned) [Example 200]	0.1 nM	2 nM
COc1cc(C)[nH]c(=O)c1CN1CCc2c(Cl)cc(C(C)C3CCN(C(=O)CO)CC3)c(Cl)c2C1=O (single isomer, unassigned) [Example 201]	7 nM	37 nM
COc1cc(C)[nH]c(=O)c1CN1CCc2c(Cl)cc(C(C3COC3)N(C)C)c(Cl)c2C1=O (single isomer, unassigned) [Example 203]	55 nM	204 nM
COc1cc(C)[nH]c(=O)c1CN1CCc2c(Cl)cc(C(C3COC3)N(C)C)c(Cl)c2C1=O (single isomer, unassigned) [Example 204]	2 nM	62 nM
Cc1cc(C)c(CN2CCc3c(Cl)cc(C(F)C4CCN(C(=O)CO)CC4)c(Cl)c3C2=O)c(=O)[nH]1 (single isomer, unassigned; (+)) [Example 8, (+)-5,8-dichloro-2-[(4,6-dimethyl-2-oxo-1,2-dihydropyridin-3-yl)methyl]-7-{fluoro[1-(hydroxyacetyl)piperidin-4-yl]methyl}-3,4-dihydroisoquinolin-1(2H)-one]	652 nM	5020 nM
Cc1cc(C)c(CN2CCc3c(Cl)cc(C(C)N4CCOCC4)c(Cl)c3C2=O)c(=O)[nH]1 (single isomer, unassigned; (+)) [Example 90, (+)-5,8-dichloro-2-[(4,6-dimethyl-2-oxo-1,2-dihydropyridin-3-yl)methyl]-7-[1-(morpholin-4-yl)ethyl]-3,4-dihydroisoquinolin-1(2H)-one]	459 nM	5630 nM
Cc1cc(C)c(CN2CCc3c(Cl)cc(C(F)C4CCN(C(=O)CO)CC4)c(Cl)c3C2=O)c(=O)[nH]1 (single isomer, unassigned; (-)) [Example 9, (−)-5,8-dichloro-2-[(4,6-dimethyl-2-oxo-1,2-dihydropyridin-3-yl)methyl]-7-{fluoro[1-(hydroxyacetyl)piperidin-4-yl]methyl}-3,4-dihydroisoquinolin-1(2H)-one]	5 nM	35 nM
Cc1cc(C)c(CN2CCc3c(Cl)cc(C(C)N4CCOCC4)c(Cl)c3C2=O)c(=O)[nH]1 (single isomer, unassigned; (-)) [Example 91, (−)-5,8-dichloro-2-[(4,6-dimethyl-2-oxo-1,2-dihydropyridin-3-yl)methyl]-7-[1-(morpholin-4-yl)ethyl]-3,4-dihydroisoquinolin-1(2H)-one]	1 nM	23 nM
Cc1cc(C)c(CN2CCc3c(Cl)cc(C(CO)N4CC[C@@H](F)C4)c(Cl)c3C2=O)c(=O)[nH]1 (stereo partly drawn) [Example 5, 5,8-dichloro-2-[(4,6-dimethyl-2-oxo-1,2-dihydropyridin-3-yl)methyl]-7-{1-[(3R)-3-fluoropyrrolidin-1-yl]-2-hydroxyethyl}-3,4-dihydroisoquinolin-1(2H)-one]	33 nM	189 nM
Cc1cc(C)c(CN2CCc3c(Cl)cc([C@H](CO)[C@@H]4CCCO4)c(Cl)c3C2=O)c(=O)[nH]1 [Example 12, 5,8-dichloro-2-[(4,6-dimethyl-2-oxo-1,2-dihydropyridin-3-yl)methyl]-7-{(1R)-2-hydroxy-1-[(2S)-tetrahydrofuran-2-yl]ethyl}-3,4-dihydroisoquinolin-1(2H)-one]	4 nM	16 nM
Cc1cc(C)c(CN2CCc3c(Cl)cc([C@H](CO)[C@H]4CCCO4)c(Cl)c3C2=O)c(=O)[nH]1 [Example 13, 5,8-dichloro-2-[(4,6-dimethyl-2-oxo-1,2-dihydropyridin-3-yl)methyl]-7-{(1R)-2-hydroxy-1-[(2R)-tetrahydrofuran-2-yl]ethyl}-3,4-dihydroisoquinolin-1(2H)-one]	3 nM	18 nM

Structure (SMILES)	Ki (WT EZH2)	IC50 (EZH2 Mutant Y641N)
Cc1cc(C)c(CN2CCc3c(Cl)cc([C@@H](CO)[C@H]4CCCO4)c(Cl)c3C2=O)c(=O)[nH]1 [Example 45]	103 nM	345 nM
Cc1cc(C)c(CN2CCc3c(Cl)cc([C@@H](CO)[C@@H]4CCCO4)c(Cl)c3C2=O)c(=O)[nH]1 [Example 46]	121 nM	423 nM
Cc1cc(C)c(CN2CCc3c(Cl)cc(C(CO)N4CC[C@H](F)C4)c(Cl)c3C2=O)c(=O)[nH]1 (stereo partly drawn) [Example 58]	57 nM	513 nM
CC(=C1CNC1)c1cc(Cl)c2c(c1Cl)C(=O)N(Cc1c(C)cc(C)[nH]c1=O)CC2 [Example 74, 7-(1-(azetidin-3-ylidene)ethyl)-5,8-dichloro-2-((4,6-dimethyl-2-oxo-1,2-dihydropyridin-3-yl)methyl)-3,4-dihydroisoquinolin-1(2H)-one]	5 nM	51 nM
CC(=C1CN(C(=O)CO)C1)c1cc(Cl)c2c(c1Cl)C(=O)N(Cc1c(C)cc(C)[nH]c1=O)CC2 [Example 75, 5,8-dichloro-2-[(4,6-dimethyl-2-oxo-1,2-dihydropyridin-3-yl)methyl]-7-{1-[1-(hydroxyacetyl)azetidin-3-ylidene]ethyl}-3,4-dihydroisoquinolin-1(2H)-one]	2 nM	20 nM
CC(=O)N1CC(=C(C)c2cc(Cl)c3c(c2Cl)C(=O)N(Cc2c(C)cc(C)[nH]c2=O)CC3)C1 [Example 76]	5 nM	43 nM
CC(=C1CN(S(C)(=O)=O)C1)c1cc(C)c2c(c1Cl)C(=O)N(Cc1c(C)cc(C)[nH]c1=O)CC2 [Example 77]	22 nM	132 nM
COc1cc(C)[nH]c(=O)c1CN1CCc2c(C)cc(C(C)=C3CN(S(C)(=O)=O)C3)c(Cl)c2C1=O [Example 78]	4 nM	40 nM
Cc1cc(C)c(CN2CCc3c(Cl)cc(C(F)=C4CN(C(=O)CO)C4)c(Cl)c3C2=O)c(=O)[nH]1 [Example 79]	17 nM	133 nM
CC(=C1CCNCC1)c1cc(Cl)c2c(c1Cl)C(=O)N(Cc1c(C)cc(C)[nH]c1=O)CC2 [Example 80]	1 nM	7 nM
COc1cc(C)[nH]c(=O)c1CN1CCc2c(Cl)cc([C@H](OC)C3COC3)c(Cl)c2C1=O [Example 81, 5,8-dichloro-2-[(4-methoxy-6-methyl-2-oxo-1,2-dihydropyridin-3-yl)methyl]-7-[(R)-methoxy(oxetan-3-yl)methyl]-3,4-dihydroisoquinolin-1(2H)-one]	0.2 nM	3 nM
COc1cc(C)[nH]c(=O)c1CN1CCc2c(Cl)cc([C@@H](OC)C3COC3)c(Cl)c2C1=O [Example 82, 5,8-dichloro-2-[(4-methoxy-6-methyl-2-oxo-1,2-dihydropyridin-3-yl)methyl]-7-[(S)-methoxy(oxetan-3-yl)methyl]-3,4-dihydroisoquinolin-1(2H)-one]	6 nM	131 nM
COc1cc(C)[nH]c(=O)c1CN1CCc2c(C)cc([C@H](OC)[C@@H]3CCOC3)c(Cl)c2C1=O [Example 83, 8-chloro-2-[(4-methoxy-6-methyl-2-oxo-1,2-dihydropyridin-3-yl)methyl]-7-{(R)-methoxy[(3R)-tetrahydrofuran-3-yl]methyl}-5-methyl-3,4-dihydroisoquinolin-1(2H)-one]	0.4 nM	4 nM
COc1cc(C)[nH]c(=O)c1CN1CCc2c(C)cc([C@@H](OC)[C@H]3CCOC3)c(Cl)c2C1=O [Example 86, 8-chloro-2-[(4-methoxy-6-methyl-2-oxo-1,2-dihydropyridin-3-yl)methyl]-7-{(S)-methoxy[(3S)-tetrahydrofuran-3-yl]methyl}-5-methyl-3,4-dihydroisoquinolin-1(2H)-one]	61 nM	637 nM
COC(c1cc(Cl)c2c(c1Cl)C(=O)N(Cc1c(C)cc(C)[nH]c1=O)CC2)C(C)O (stereo not drawn) [Example 102]	18 nM	178 nM
COc1cc(C)[nH]c(=O)c1CN1CCc2c(Cl)cc([C@H](CO)[C@H]3CCCO3)c(Cl)c2C1=O [Example 105]	0.8 nM	13 nM
COc1cc(C)[nH]c(=O)c1CN1CCc2c(Cl)cc([C@H](CO)[C@@H]3CCCO3)c(Cl)c2C1=O [Example 106]	0.6 nM	8 nM
COC(c1cc(Cl)c2c(c1Cl)C(=O)N(Cc1c(C)cc(C)[nH]c1=O)CC2)C1CCN(C(=O)CO)C1 (stereo not drawn) [Example 113]	0.8 nM	5 nM
